Results published in the supplement of paper PMC10307832.

What was measured:
Assay in all cases: relative viability (nuclei count vs DMSO), 5 days (fraction); higher = more cells survive
VX-11e + Palbociclib = compound: CC1=CN=C(N=C1C2=CNC(=C2)C(=O)N[C@H](CO)C3=CC(=CC=C3)Cl)NC4=C(C=C(C=C4)F)Cl [VX-11e] + CC(=O)c1c(C)c2cnc(Nc3ccc(N4CCNCC4)cn3)nc2n(C2CCCC2)c1=O [Palbociclib] (partner 0.5 µM)
Summary of the method: (§1)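 Relative viability was taken as the ratio of nuclei in treated wells to nuclei in vehicle wells. Lung cancer cell lines in 1536-well plates received compounds by pin tool one day after seeding, either one drug alone or a fixed anchor-drug dose plus five library-drug doses (not always all listed) in √10 steps. Nuclei were counted on 4× images after 5 days of treatment, and values are medians of duplicate plates.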

VX-11e + Bortezomib = compound: CC1=CN=C(N=C1C2=CNC(=C2)C(=O)N[C@H](CO)C3=CC(=CC=C3)Cl)NC4=C(C=C(C=C4)F)Cl [VX-11e] + CC(C)C[C@H](NC(=O)[C@H](Cc1ccccc1)NC(=O)c1cnccn1)B(O)O [Bortezomib] (partner 0.002 µM)
Summary of the method: as §1

VX-11e + Foretinib = compound: CC1=CN=C(N=C1C2=CNC(=C2)C(=O)N[C@H](CO)C3=CC(=CC=C3)Cl)NC4=C(C=C(C=C4)F)Cl [VX-11e] + COc1cc2c(Oc3ccc(NC(=O)C4(C(=O)Nc5ccc(F)cc5)CC4)cc3F)ccnc2cc1OCCCN1CCOCC1 [Foretinib] (partner 0.25 µM)
Summary of the method: as §1

VX-11e + Pictilisib = compound: CC1=CN=C(N=C1C2=CNC(=C2)C(=O)N[C@H](CO)C3=CC(=CC=C3)Cl)NC4=C(C=C(C=C4)F)Cl [VX-11e] + CS(=O)(=O)N1CCN(Cc2cc3nc(-c4cccc5[nH]ncc45)nc(N4CCOCC4)c3s2)CC1 [Pictilisib] (partner 1 µM)
Summary of the method: as §1

Cell Line	relative viability (VX-11e + Palbociclib; first compound 0.04 µM)	relative viability (VX-11e + Palbociclib; first compound 0.1265 µM)	relative viability (VX-11e + Palbociclib; first compound 0.4 µM)	relative viability (VX-11e + Palbociclib; first compound 1.265 µM)	relative viability (VX-11e + Palbociclib; first compound 4 µM)	relative viability (VX-11e + Bortezomib; first compound 0.04 µM)	relative viability (VX-11e + Bortezomib; first compound 0.1265 µM)	relative viability (VX-11e + Bortezomib; first compound 0.4 µM)	relative viability (VX-11e + Bortezomib; first compound 1.265 µM)	relative viability (VX-11e + Bortezomib; first compound 4 µM)	relative viability (VX-11e + Foretinib; first compound 0.04 µM)	relative viability (VX-11e + Foretinib; first compound 0.1265 µM)	relative viability (VX-11e + Foretinib; first compound 4 µM)	relative viability (VX-11e + Pictilisib; first compound 0.04 µM)	relative viability (VX-11e + Pictilisib; first compound 0.1265 µM)	relative viability (VX-11e + Pictilisib; first compound 0.4 µM)	relative viability (VX-11e + Pictilisib; first compound 1.265 µM)	relative viability (VX-11e + Pictilisib; first compound 4 µM)	relative viability (VX-11e + Foretinib; first compound 0.4 µM)	relative viability (VX-11e + Foretinib; first compound 1.265 µM)
201T	0.206	0.337	0.361	0.353	0.348	1.05	1.11	1.12	1.02	1.03	1.12	0.959	1.03	0.599	0.658	0.608	0.542	0.647		
A-427	0.553	0.442	0.516	0.496	0.336	1.11	0.955	1.06	1.04	0.479	1.14	1.01	0.342	0.454	0.468	0.535	0.422	0.154	0.835	0.805
ABC-1	0.568		0.655	0.548	0.65	0.268	0.246	0.262	0.263	0.263	1.48	0.996	0.826	0.615	0.539	0.809	0.518	0.466	0.899	1.16
BEN	0.46	0.401	0.465	0.47	0.431	0.543	0.779	0.942	0.533	0.725		0.633	0.557	0.465	0.533	0.628	0.392	0.468	0.966	0.451
CAL-12T	0.391	0.433	0.331	0.141	0.116			0.91	0.715	0.509	1.1	1.03	0.561			0.393	0.524	0.295	1.07	1.07
COR-L23	0.376	0.274	0.225	0.183	0.123	1.29	0.967	1.12	0.667	0.348	1.1	0.939	0.373	0.83	0.72	0.52	0.382	0.184	0.964	0.749
COR-L 105	0.425	0.414	0.396	0.386	0.363	0.814	0.826	0.6	0.338	0.226	1.39	1.1	0.653	0.341	0.41	0.362	0.29	0.322	0.963	0.562
Calu-6						1.08	1.04	1.03	0.333	0.206	0.969	0.869	0.103	1.03	0.874	0.907	0.261	0.0991	0.829	0.397
